Data from patent publication US8247211B2, “Glycopeptide antibiotics” (American Cyanamid Company, priority 2001, dated 2012).

Key:
Assay in all cases: In vitro antibacterial evaluation: minimum inhibitory concentration (MIC), broth dilution method
Type in all cases: cell-based
Staphylococcus sp. = conditions: broth dilution, 18 hours at 35° C.; for MIC Staphylococcus aureus-SMITH (GC 4543): strain SMITH GC 4543
How it was run: (§1)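 Inoculum: 5×10^5 CFU/mL. Range: 64-0.06 μg/mL. Medium: Muller-Hinton II […]; NCCLS M7-A2 broth dilution. Endpoint: lowest concentration inhibiting growth. Strains include methicillin-, penicillin- and/or vancomycin-resistant clinical isolates.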

Enterococcus sp. = conditions: broth dilution, 18 hours at 35° C.
How it was run: as §1

Streptococcus sp. = conditions: broth dilution, 18 hours at 35° C.
How it was run: as §1

Escherichia coli = conditions: broth dilution, 18 hours at 35° C.
[1] = Enterococcus faecalis (GC 4553)
[2] = Streptococcus agalactiae (GC 4564)
[3] = Streptococcus pneumoniae (GC 1894)
[4] = Streptococcus pyogenes (GC 4563)

CCCCCCC(=O)Nc1cc(CC2NC(=O)C(C(C)c3ccccc3)NC(=O)CNC(=O)C(CO)NC(=O)C(C(O)C3CNC(=N)N3C3OC(CO)C(O)C(O)C3O)NC(=O)C(C(O)C3CNC(=N)N3)NC2=O)ccc1O (stereo not drawn) [Example 16, Cyclo[glycyl-β-methylphenylalanyl-3-(heptanamido)tyrosyl-3-(2-iminoimidazolidin-4-yl)seryl-3-(3-hexopyranosyl-2-iminoimidazolidin-4-yl)serylseryl]]
32 µg/mL: MIC Escherichia coli (ATCC 25922) (Escherichia coli) | MIC Escherichia coli (GC 4559) (Escherichia coli)
8 µg/mL: MIC Escherichia coli (GC 4560) (Escherichia coli)
64 µg/mL: MIC Staphylococcus aureus-SMITH (GC 4543) (Staphylococcus sp.) | MIC Enterococcus faecalis (GC 4553) (Enterococcus sp.; [1]) | MIC Enterococcus faecalis (GC 4553) (Enterococcus sp.) | MIC Streptococcus agalactiae (GC 4564) (Streptococcus sp.; [2]) | MIC Streptococcus pneumoniae (GC 1894) (Streptococcus sp.; [3]) | MIC Streptococcus agalactiae (GC 4564) (Streptococcus sp.) | MIC Streptococcus pneumoniae (GC 1894) (Streptococcus sp.)
16 µg/mL: MIC Enterococcus faecium (GC 4557) (Enterococcus sp.; Enterococcus faecium (GC 4557)) | MIC Enterococcus faecium (GC 4557) (Enterococcus sp.) | MIC Streptococcus pyogenes (GC 4563) (Streptococcus sp.; [4]) | MIC Streptococcus pyogenes (GC 4563) (Streptococcus sp.)

CC(c1ccccc1)C1NC(=O)CNC(=O)C(CO)NC(=O)C(C(O)C2CNC(=N)N2C2OC(CO)C(O)C(O)C2O)NC(=O)C(C(O)C2CNC(=N)N2)NC(=O)C(Cc2ccc(O)c(NC(=O)c3ccccc3)c2)NC1=O (stereo not drawn) [Example 17, Cyclo[glycyl-β-methylphenylalanyl-3-(benzamido)tyrosyl-3-(2-iminoimidazolidin-4-yl)seryl-3-(3-hexopyranosyl-2-iminoimidazolidin-4-yl)serylseryl]]
16 µg/mL: MIC Escherichia coli (GC 4560) (Escherichia coli)
64 µg/mL: MIC Enterococcus avium (GC 4558) (Enterococcus sp.; Enterococcus avium (GC 4558)) | MIC Enterococcus faecium (GC 4556) (Enterococcus sp.; Enterococcus faecium (GC 4556)) | MIC Enterococcus faecium (GC 4557) (Enterococcus sp.; Enterococcus faecium (GC 4557)) | MIC Enterococcus avium (GC 4558) (Enterococcus sp.) | MIC Enterococcus faecium (GC 4556) (Enterococcus sp.) | MIC Enterococcus faecium (GC 4557) (Enterococcus sp.) | MIC Streptococcus pneumoniae (GC 1894) (Streptococcus sp.; [3]) | MIC Streptococcus pneumoniae (GC 1894) (Streptococcus sp.) | MIC Escherichia coli (ATCC 25922) (Escherichia coli)
>64 µg/mL: MIC Staphylococcus aureus-SMITH (GC 4543) (Staphylococcus sp.) | MIC Enterococcus faecalis (ATCC 29212) (Enterococcus sp.; Enterococcus faecalis (ATCC 29212)) | MIC Enterococcus faecalis (GC 2242) (Enterococcus sp.; Enterococcus faecalis (GC 2242)) | MIC Enterococcus faecalis (GC 2691) (Enterococcus sp.; Enterococcus faecalis (GC 2691)) | MIC Enterococcus faecalis (GC 3059) (Enterococcus sp.; Enterococcus faecalis (GC 3059)) | MIC Enterococcus faecalis (GC 4552) (Enterococcus sp.; Enterococcus faecalis (GC 4552)) | MIC Enterococcus faecalis (GC 4553) (Enterococcus sp.; [1]) | MIC Enterococcus faecalis (GC 4554) (Enterococcus sp.; Enterococcus faecalis (GC 4554)) | MIC Enterococcus faecalis (GC 6189) (Enterococcus sp.; Enterococcus faecalis (GC 6189)) | MIC Enterococcus faecium (GC 2243) (Enterococcus sp.; Enterococcus faecium (GC 2243)) | MIC Enterococcus faecalis (ATCC 29212) (Enterococcus sp.) | MIC Enterococcus faecalis (GC 2242) (Enterococcus sp.) | MIC Enterococcus faecalis (GC 2691) (Enterococcus sp.) | MIC Enterococcus faecalis (GC 3059) (Enterococcus sp.) | MIC Enterococcus faecalis (GC 4552) (Enterococcus sp.) | MIC Enterococcus faecalis (GC 4553) (Enterococcus sp.) | MIC Enterococcus faecalis (GC 4554) (Enterococcus sp.) | MIC Enterococcus faecalis (GC 6189) (Enterococcus sp.) | MIC Enterococcus faecium (GC 2243) (Enterococcus sp.) | MIC Streptococcus agalactiae (GC 4564) (Streptococcus sp.; [2]) | MIC Streptococcus pneumoniae (ATCC 6301) (Streptococcus sp.; Streptococcus pneumoniae (ATCC 6301)) | MIC Streptococcus pneumoniae (GC 4565) (Streptococcus sp.; Streptococcus pneumoniae (GC 4565)) | MIC Streptococcus pyogenes (GC 4563) (Streptococcus sp.; [4]) | MIC Streptococcus agalactiae (GC 4564) (Streptococcus sp.) | MIC Streptococcus pneumoniae (ATCC 6301) (Streptococcus sp.) | MIC Streptococcus pneumoniae (GC 4565) (Streptococcus sp.) | MIC Streptococcus pyogenes (GC 4563) (Streptococcus sp.)
32 µg/mL: MIC Escherichia coli (GC 4559) (Escherichia coli)

CC(c1ccccc1)C1NC(=O)CNC(=O)C(CO)NC(=O)C(C(O)C2CNC(=N)N2C2OC(CO)C(O)C(O)C2O)NC(=O)C(C(O)C2CNC(=N)N2)NC(=O)C(Cc2ccc(O)c(NC=O)c2)NC1=O (stereo not drawn) [Example 18, Cyclo[glycyl-β-methylphenylalanyl-3-formamidotyrosyl-3-(2-iminoimidazolidin-4-yl)seryl-3-(3-hexopyranosyl-2-iminoimidazolidin-4-yl)serylseryl]]
32 µg/mL: MIC Escherichia coli (GC 4559) (Escherichia coli)
64 µg/mL: MIC Enterococcus faecium (GC 4557) (Enterococcus sp.; Enterococcus faecium (GC 4557)) | MIC Enterococcus faecium (GC 4557) (Enterococcus sp.) | MIC Streptococcus pneumoniae (GC 1894) (Streptococcus sp.; [3]) | MIC Streptococcus pneumoniae (GC 1894) (Streptococcus sp.) | MIC Escherichia coli (ATCC 25922) (Escherichia coli)
16 µg/mL: MIC Escherichia coli (GC 4560) (Escherichia coli)

CC(c1ccccc1)C1NC(=O)CNC(=O)C(CO)NC(=O)C(C(O)C2CNC(=N)N2C2OC(CO)C(O)C(O)C2O)NC(=O)C(C(O)C2CNC(=N)N2)NC(=O)C(Cc2ccc3oc(-c4ccccc4OC4OC(CO)C(O)C(O)C4O)nc3c2)NC1=O (stereo not shown) [Example 36]
64 µg/mL: MIC Coagulase Negative Staphylococcus (GC 4547) (Staphylococcus sp.) | MIC Coagulase Negative Staphylococcus (GC 4549) (Staphylococcus sp.) | MIC Coagulase Negative Staphylococcus (GC 6257) (Staphylococcus sp.) | MIC Staphylococcus haemolyticus (GC 4546) (Staphylococcus sp.) | MIC Escherichia coli (GC 4560) (Escherichia coli)
